{
  "source": "patent US8309726B2",
  "about": "“Substituted piperazine compounds of formula 8” (Council of Scientific & Industrial Research, priority 2007, dated 2012)",
  "key": {"[1]": {"system": "calf thymus (CT) DNA", "experiment": "Thermal denaturation studies with duplex-form calf thymus DNA", "assay_type": "binding", "description": "Compounds were subjected to thermal denaturation studies with duplex-form calf thymus DNA (CT-DNA) using an adaptation of a reported procedure. Working solutions in aqueous buffer (10 mM NaH2PO4/Na2HPO4, 1 mM Na2EDTA, pH 7.00+/−0.01) containing CT-DNA (100 μM in phosphate) and the PBD (20 μM) were prepared by addition of concentrated ANCD solutions in DMSO to obtain a fixed [ANCD]/[DNA] molar ratio of 1:5. The DNA-ANCD solutions were incubated at 37° C. for 0, 18, and 36 h prior to analysis. Samples were monitored at 260 nm using a Beckman DU-7400 spectrophotometer fitted with high performance temperature controller, and heating was applied at 1° C. min^−1 in the 40-90° C. range. DNA helix coil transition temperatures (Tm) were obtained from the maxima in the (dA260)/dT derivative plots. Results are given as the mean+/−standard deviation from three determinations and are corrected for the effects of DMSO co-solvent using a linear correction term. Drug-induced alterations in DNA melting behaviour are given by: ΔTm=Tm (DNA+ANCD)−Tm (DNA alone), where the Tm value for the ANCD-free CT-DNA is 69.0+/−0.01."}, "[2]": {"system": "human tumour cell lines", "experiment": "In vitro anticancer activity against sixty human tumour cell lines (NCI, SRB assay)", "assay_type": "cell-based", "description": "(§1) In vitro evaluation of cytotoxic activity: Compounds were evaluated for in vitro anticancer activity against sixty human tumour cells derived from nine cancer types (colon, prostate, oral, lung, cervix and breast cancer) as shown in (Table 1, 2 and 3) 8b, 8c, 8d, and 8e, were evaluated for in vitro anticancer activity against sixty human tumour cells derived from nine cancer types (leukemia, non-small-cell lung, colon, CNS, melanoma, ovarian, prostate, and breast cancer) as shown in (Table 2 and 3). For the compound, dose response curves for each cell line were measured at a minimum of five concentrations at 10 fold dilutions. A protocol of 48 h continuous drug exposure was used and a sulforhodamine B (SRB) protein assay was used to estimate cell viability or growth. The concentration causing 50% cell growth inhibition (GI50), total cell growth inhibition (TGI 0% growth) and 50% cell death (LC50, −50% growth) compared with the control was calculated. The mean graph midpoint values of log10 TGI and log10 LC50 as well as log10 GI50 for 8a, 8b, 8c, 8d, and 8e, are listed in (Table 2 and 3).\n(§2) Each cancer type represents the average of six to nine different cancer cell lines. The compounds 8a, 8b, 8c, 8d, 8e and 8f were evaluated for in vitro anticancer activity against sixty human tumour cells derived from nine cancer types (leukemia, colon, prostate, renal melanoma CNS, lung, cervix and breast cancer) as shown in Table 3. Compounds 8b, 8c, 8d and 8e show promising cytotoxicity against some cancer cell lines (Table 2). Compounds 8b, 8c, 8d and 8e have been evaluated for their in vitro cytotoxicity in selected human cancer cell lines of colon (Colo205), lung (Hop-62), cervix (SiHa), prostate (DU145, PC3), oral (DWD, HT1080), and breast (MCF7, Zr-75-1) origin. A protocol of 48 h continuous drug exposure has been used and an […] has been used to estimate cell viability or growth. The results are expressed as percent of cell growth determined relative to that of untreated control cells. […] In the breast cancer panel, the growth of BT-549, MCF-7 cell lines are 10.3, and 17.6. In the prostate cancer panel, the growth of DU-145, PC-3 cell lines are 11.3, and 19.2. The GI50 values of compound In the CNS cancer panel, the growth of SF-539, SNB-75 cell lines are […]. […] In vitro cytotoxicity of compounds 8a, and 8b in selected cancer cell lines has been illustrated in Table 3. The average GI50 values for each cancer panel of compounds 8b, 8c, 8d and 8e have been illustrated in above Table 2 and 3"}, "[3]": {"system": "Leukemia cancer cell lines", "experiment": "In vitro cytotoxicity, leukemia panel", "assay_type": "cell-based", "details": "Homo sapiens, average of six to nine different cancer cell lines, 48 h, SRB, read-out: Log GI50 (concentration in mol/L causing 50% growth inhibition) (converted)", "description": "as §1, §2"}, "[4]": {"system": "Nonsmall-cell-lung cancer cell lines", "experiment": "In vitro cytotoxicity, non-small-cell lung panel", "assay_type": "cell-based", "details": "Homo sapiens, average of six to nine different cancer cell lines, 48 h, SRB, read-out: Log GI50 (concentration in mol/L causing 50% growth inhibition) (converted)", "description": "as §1, §2"}, "[5]": {"system": "Colon cancer cell lines", "experiment": "In vitro cytotoxicity, colon panel", "assay_type": "cell-based", "details": "Homo sapiens, average of six to nine different cancer cell lines, 48 h, SRB, read-out: Log GI50 (concentration in mol/L causing 50% growth inhibition) (converted)", "description": "as §1, §2"}, "[6]": {"system": "CNS cancer cell lines", "experiment": "In vitro cytotoxicity, CNS panel", "assay_type": "cell-based", "details": "Homo sapiens, average of six to nine different cancer cell lines, 48 h, SRB, read-out: Log GI50 (concentration in mol/L causing 50% growth inhibition) (converted)", "description": "as §1, §2"}, "[7]": {"system": "Melanoma cancer cell lines", "experiment": "In vitro cytotoxicity, melanoma panel", "assay_type": "cell-based", "details": "Homo sapiens, average of six to nine different cancer cell lines, 48 h, SRB, read-out: Log GI50 (concentration in mol/L causing 50% growth inhibition) (converted)", "description": "as §1, §2"}, "[8]": {"system": "Ovarian cancer cell lines", "experiment": "In vitro cytotoxicity, ovarian panel", "assay_type": "cell-based", "details": "Homo sapiens, average of six to nine different cancer cell lines, 48 h, SRB, read-out: Log GI50 (concentration in mol/L causing 50% growth inhibition) (converted)", "description": "as §1, §2"}, "[9]": {"system": "Renal cancer cell lines", "experiment": "In vitro cytotoxicity, renal panel", "assay_type": "cell-based", "details": "Homo sapiens, average of six to nine different cancer cell lines, 48 h, SRB, read-out: Log GI50 (concentration in mol/L causing 50% growth inhibition) (converted)", "description": "as §1, §2"}, "[10]": {"system": "Prostate cancer cell lines", "experiment": "In vitro cytotoxicity, prostate panel", "assay_type": "cell-based", "details": "Homo sapiens, average of six to nine different cancer cell lines, 48 h, SRB, read-out: Log GI50 (concentration in mol/L causing 50% growth inhibition) (converted)", "description": "as §1, §2"}, "[11]": {"system": "Breast cancer cell lines", "experiment": "In vitro cytotoxicity, breast panel", "assay_type": "cell-based", "details": "Homo sapiens, average of six to nine different cancer cell lines, 48 h, SRB, read-out: Log GI50 (concentration in mol/L causing 50% growth inhibition) (converted)", "description": "as §1, §2"}, "[12]": {"system": "EKVX cell line (non-small cell lung cancer)", "experiment": "In vitro cytotoxicity, EKVX", "assay_type": "cell-based", "details": "Homo sapiens, non-small cell lung cancer panel", "description": "(§3) In vitro evaluation of cytotoxic activity: Compounds were evaluated for in vitro anticancer activity against sixty human tumour cells derived from nine cancer types (colon, prostate, oral, lung, cervix and breast cancer) as shown in (Table 1, 2 and 3) 8b, 8c, 8d, and 8e, were evaluated for in vitro anticancer activity against sixty human tumour cells derived from nine cancer types (leukemia, non-small-cell lung, colon, CNS, melanoma, ovarian, prostate, and breast cancer) as shown in (Table 2 and 3). For the compound, dose response curves for each cell line were measured at a minimum of five concentrations at 10 fold dilutions. […]\n(§4) Each cancer type represents the average of six to nine different cancer cell lines. The compounds 8a, 8b, 8c, 8d, 8e and 8f were evaluated for in vitro anticancer activity against sixty human tumour cells derived from nine cancer types (leukemia, colon, prostate, renal melanoma CNS, lung, cervix and breast cancer) as shown in Table 3. […] Compounds 8b, 8c, 8d and 8e have been evaluated for their in vitro cytotoxicity in selected human cancer cell lines of colon (Colo205), lung (Hop-62), cervix (SiHa), prostate (DU145, PC3), oral (DWD, HT1080), and breast (MCF7, Zr-75-1) origin. […] The results are expressed as percent of cell growth determined relative to that of untreated control cells. […]"}, "[13]": {"system": "NCI-H226 cell line (non-small cell lung cancer)", "experiment": "In vitro cytotoxicity, NCI-H226", "assay_type": "cell-based", "details": "Homo sapiens; NCI-H226, non-small cell lung cancer panel", "description": "as §3, §4"}, "[14]": {"system": "HL-60 (TB) (leukemia)", "experiment": "In vitro cytotoxicity, HL-60 (TB)", "assay_type": "cell-based", "details": "Homo sapiens, leukemia panel", "description": "as §3, §4"}, "[15]": {"system": "BT-549 cell line (breast cancer)", "experiment": "In vitro cytotoxicity, BT-549", "assay_type": "cell-based", "details": "Homo sapiens; BT-549, breast cancer panel; unit inferred; read-out: growth (GI50)", "description": "as §3, §4"}, "[16]": {"system": "MCF-7 cell line (breast cancer)", "experiment": "In vitro cytotoxicity, MCF-7", "assay_type": "cell-based", "details": "Homo sapiens, MCF7; MCF-7, breast cancer panel; unit inferred; read-out: growth (GI50)", "description": "as §3, §4"}, "[17]": {"system": "DU-145 cell line (prostate cancer)", "experiment": "In vitro cytotoxicity, DU-145", "assay_type": "cell-based", "details": "Homo sapiens; DU-145, prostate cancer panel; unit inferred; read-out: growth (GI50)", "description": "as §3, §4"}, "[18]": {"system": "PC-3 cell line (prostate cancer)", "experiment": "In vitro cytotoxicity, PC-3", "assay_type": "cell-based", "details": "Homo sapiens; PC-3, prostate cancer panel; unit inferred; read-out: growth (GI50)", "description": "as §3, §4"}},
  "data": [
    {"smiles": "COc1cc(C(=O)N2CCN(c3ccccn3)CC2)c(N)cc1OCc1ccccc1", "note": "[Compound 8b, [2-amino-4-(benzyloxy)-5-methoxyphenyl][4-(2-pyridyl)piperazino]methanone]", "values": [
      {"measurement": "ΔTm (° C.) after incubation at 37° C. for 0 h", "setting": "[1]; [ANCD]/[DNA] molar ratio 1:5, CT-DNA 100 μM, ligand 20 μM, sodium phosphate buffer pH 7.00, 0 h at 37° C.", "value": 1.5, "unit": "°C"},
      {"measurement": "ΔTm (° C.) after incubation at 37° C. for 18 h", "setting": "[1]; [ANCD]/[DNA] molar ratio 1:5, CT-DNA 100 μM, ligand 20 μM, sodium phosphate buffer pH 7.00, 18 h at 37° C.", "value": 2.1, "unit": "°C"},
      {"measurement": "ΔTm (° C.) after incubation at 37° C. for 36 h", "setting": "[1]; [ANCD]/[DNA] molar ratio 1:5, CT-DNA 100 μM, ligand 20 μM, sodium phosphate buffer pH 7.00, 36 h at 37° C.", "value": 2.6, "unit": "°C"},
      {"measurement": "Course of ΔTm over incubation at 0 hr, 18 hr and 36 hr", "setting": "[1]; incubation at 37° C., [ANCD]/[DNA] 1:5", "value": "gradually increased"},
      {"measurement": "Log10LC50 mean graph midpoint (MG_MID)", "setting": "[2]; 50% cell death, 48 h continuous drug exposure, SRB assay", "value": "−4.05"},
      {"measurement": "Log10GI50 mean graph midpoint (MG_MID)", "setting": "[2]; 50% cell growth inhibition, 48 h continuous drug exposure, SRB assay", "value": "−5.62"},
      {"measurement": "GI50", "setting": "[2]; Homo sapiens, fifty-five cell lines in nine cancer cell panels", "value": "< 10", "unit": "µM"},
      {"measurement": "antiproliferative activity", "setting": "[2]; against most of the tested cell lines", "value": "nanomolar to low micromolar concentrations"},
      {"measurement": "Log10TGI50 mean graph midpoint (MG_MID)", "setting": "[2]; total cell growth inhibition, 48 h continuous drug exposure, SRB assay", "value": "−5.12"},
      {"measurement": "GI50", "setting": "[3]", "value": 5.5, "unit": "µM"},
      {"measurement": "GI50", "setting": "[4]", "value": 4.57, "unit": "µM"},
      {"measurement": "GI50", "setting": "[5]", "value": 6.76, "unit": "µM"},
      {"measurement": "GI50", "setting": "[6]", "value": 5.89, "unit": "µM"},
      {"measurement": "GI50", "setting": "[7]", "value": 1.78, "unit": "µM"},
      {"measurement": "GI50", "setting": "[8]", "value": 5.75, "unit": "µM"},
      {"measurement": "GI50", "setting": "[9]", "value": 5.62, "unit": "µM"},
      {"measurement": "GI50", "setting": "[10]", "value": 16.6, "unit": "µM"},
      {"measurement": "GI50", "setting": "[11]", "value": 6.76, "unit": "µM"},
      {"measurement": "GI50", "setting": "[12]", "value": 12.4, "unit": "µM"},
      {"measurement": "GI50", "setting": "[13]", "value": 13.6, "unit": "µM"},
      {"measurement": "GI50", "setting": "[14]", "value": 16.5, "unit": "µM"},
      {"measurement": "GI50", "setting": "[15]", "value": 10.3, "unit": "µM"},
      {"measurement": "GI50", "setting": "[16]", "value": 17.6, "unit": "µM"},
      {"measurement": "GI50", "setting": "[17]", "value": 11.3, "unit": "µM"},
      {"measurement": "GI50", "setting": "[18]", "value": 19.2, "unit": "µM"}
    ]}
  ]
}
